These are literature values, as cited in patent US12357627B2, “Pharmaceutical compositions of cabozantinib” (AZURITY PHARMACEUTICALS, INC., priority 2021, dated 2025).

SMILES strings stand for the structures. In brackets after ≈: the same amount, converted by molar mass. Where two headings read alike, the source gives them in different places.

Broadly, the solubility is the dissolved amount per volume that the medium holds.

The conditions of series [1]: mass balance study.
The conditions of series [2]: high-fat meal relative to fasted conditions, healthy subjects, single oral dose.

`COc1cc2nccc(Oc3ccc(NC(=O)C4(C(=O)Nc5ccc(F)cc5)CC4)cc3)c2cc1OC` [Cabozantinib]: the solubility entry was “practically insoluble” (at pH>4), 110 µg/mL (≈ 219 µM) (in 0.01N HCl) and “practically insoluble” (in water). Further, the “administered cabozantinib renally excreted” value in series [1] is on record as “at least 27%”. Also, in series [2], the “increase of AUC” value is 57%. For the same compound, in series [2], the “increase of Cmax” value is 41%.
